From US10138251B2, “Spiro[3H-indole-3,2′-pyrrolidin]-2(1H)-one compounds and derivatives as MDM2-P53 inhibitors” (Boehringer Ingelheim International GmbH, priority 2014, dated 2018)

Columns and labels:
[1] = tested on: human prostate tumor xenograft models harboring p53 wild-type; settings: Tovar et al. 2013; cited from earlier work
[2] = tested on: human acute myeloid leukemia (AML) xenograft models harboring p53 wild-type; settings: Tovar et al. 2013; cited from earlier work
[3] = tested on: solid tumor xenograft models; settings: Carol et al. 2013; cited from earlier work
[4] = tested on: acute lymphoblastic leukemia (ALL) xenograft models with mixed-lineage leukemia (MLL) rearrangement; settings: Carol et al. 2013; cited from earlier work
MDM2 = molecular target: T1, MDM2 (Homo sapiens, UniProt Q00987); test: Mdm2-p53 Inhibition AlphaScreen; assay type: binding; settings: 20 nM GST-MDM2 protein (aa 23-117), 20 nM biotinylated p53 wt peptide
T1 construct: 20 nM GST-MDM2 protein (aa 23-117)
T1 sequence (Q00987 23-117): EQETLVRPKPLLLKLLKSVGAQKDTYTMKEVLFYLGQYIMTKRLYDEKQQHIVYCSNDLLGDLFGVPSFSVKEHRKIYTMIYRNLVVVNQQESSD
Experimental: Mdm2-p53 Inhibition AlphaScreen
15 μL of compound in 20% DMSO (serial pre-dilutions of compound are done in 100% DMSO) is pipetted to the wells of a white OptiPlate-96 (PerkinElmer). A mix consisting of 20 nM GST-MDM2 protein (aa 23-117) and 20 nM biotinylated p53 wt peptide (encompassing aa 16-27 of wt human p53, amino acid sequence QETFSDLWKLLP-Ttds-Lys-Biotin, molecular weight 2132.56 g/mol) is prepared in assay buffer (50 mM Tris/HCl pH 7.2; 120 mM NaCl; 0.1% bovine serum albumin (BSA); 5 mM dithiothreitol (DTT); 1 mM ethylenediaminetetraacetic acid (EDTA); 0.01% Tween 20). 30 μL of the mix is added to the compound dilutions and incubated for 15 min at rt while gently shaking the plate at 300 rounds per minute (rpm). Subsequently, 15 μL of premixed AlphaLISA Glutathione Acceptor Beads and AlphaScreen Streptavidin Donor Beads from PerkinElmer (in assay buffer at a concentration of 10 μg/mL each) are added and the samples are incubated for 30 min at rt in the dark (shaking 300 rpm). Afterwards, the signal is measured in a PerkinElmer Envision HTS Multilabel Reader using the AlphaScreen protocol from PerkinElmer.
Each plate contains negative controls where biotinylated p53-peptide and GST-MDM2 are left out and replaced by assay buffer. Negative control values are entered as low basis value when using the software GraphPad Prism for calculations. Furthermore, a positive control (5% DMSO instead of test compound; with protein/peptide mix) is pipetted. Determination of IC50 values are carried out using GraphPad Prism 3.03 software (or updates thereof).

IC50 (MDM2) [nM] | SMILES | other results
– | CCOc1cc(C(C)(C)C)ccc1C1=N[C@@](C)(c2ccc(Cl)cc2)[C@@](C)(c2ccc(Cl)cc2)N1C(=O)N1CCN(CCCS(C)(=O)=O)CC1 [RG7112] | antiproliferative and proapoptotic activity [1]: antiproliferative and proapoptotic activity; antiproliferative and proapoptotic activity [2]: antiproliferative and proapoptotic activity; tumor growth inhibition [3]: induced tumor growth inhibition; efficacy [4]: particularly efficacious
16 | NC(=O)c1ccc([C@H]2C[C@H]3[C@@H](N2)[C@H](c2cccc(Cl)c2F)[C@]2(C(=O)Nc4cc(Cl)ccc42)N3CC2CC2)cc1 [Compound I-75] | –
41 | O=C(O)c1ccc([C@@H]2C[C@H]3[C@@H](N2)[C@H](c2cccc(Cl)c2F)[C@]2(C(=O)Nc4cc(Cl)ccc42)N3CC2CC2)cc1 [Compound I-30] | –
40 | O=C(O)CN1CC[C@H]2[C@@H]1[C@H](c1cccc(Cl)c1F)[C@]1(C(=O)Nc3cc(Cl)ccc31)N2CC1CC1 [Compound I-67] | –
2 | CCOc1cccc(CN2[C@H]3CCN(CC(=O)O)[C@H]3[C@H](c3cccc(Cl)c3F)[C@]23C(=O)Nc2cc(Cl)ccc23)c1 [Compound I-70] | –
9 | O=C(O)c1ccc([C@H]2C[C@H]3[C@@H](N2)[C@H](c2cccc(Cl)c2F)[C@]2(C(=O)Nc4cc(Cl)c(F)cc42)N3CC2CC2)cc1 [Compound I-35] | –
124 | O=C(O)c1ccc([C@H]2CC[C@H]3[C@@H](N2)[C@H](c2cccc(Cl)c2F)[C@]2(C(=O)Nc4cc(Cl)ccc42)N3CC2CC2)cc1 [Compound I-39] | –
21 | CCOc1cccc(CN2[C@H]3CCN(CC4CC4C(N)=O)[C@H]3[C@H](c3cccc(Cl)c3F)[C@]23C(=O)Nc2cc(Cl)ccc23)c1 (stereo partly shown) [Compound I-74] | –
274 | O=C(O)C1CCC(CN2CC[C@H]3[C@@H]2[C@H](c2cccc(Cl)c2F)[C@]2(C(=O)Nc4cc(Cl)ccc42)N3CC2CC2)CC1 (stereo partly shown) [Compound I-61] | –
5 | O=C(O)c1ccc([C@H]2C[C@H]3[C@@H](N2)[C@H](c2cccc(Cl)c2F)[C@]2(C(=O)Nc4cc(Cl)ccc42)N3CC2CC2)cc1 [Compound I-29] | –
